In PubChem BioAssay AID330 (DTP/NCI, 2004):
“And” between values parts separate entries of the source, which are not always exact repeats. Equal entries are not always repeated. Toxic doses and inconclusive results are not listed. Rule for the calls: active = survival T/C of 150% or more; inactive = T/C below 125% in these data.

Tested on: P388 leukemia ip, CD2F1 mice, survival T/C
Test: NCI In Vivo Anticancer Drug Screen. Data for tumor model P388 Leukemia (intraperitoneal) in CD2F1 (CDF1) mice
Conditions: endpoint: median survival time, higher = longer survival
Procedure, shortened: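 Mice carrying the transplanted tumor received test compound or vehicle. Survival was recorded in each group, and the value is the treated-group measurement divided by that of the vehicle-treated control group.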

[1] = dose: 50.0 mg/kg/injection, schedule: Q01DX009 (ip), vehicle: suspension in saline
[2] = dose: 100.0 mg/kg/injection, schedule: Q01DX009 (ip), vehicle: suspension in saline
[3] = dose: 200.0 mg/kg/injection, schedule: Q01DX009 (ip), vehicle: suspension in saline
[4] = dose: 12.5 mg/kg/injection, schedule: Q01DX009 (ip), vehicle: saline with Tween-80
[5] = dose: 25.0 mg/kg/injection, schedule: Q01DX009 (ip), vehicle: saline with Tween-80
[6] = dose: 50.0 mg/kg/injection, schedule: Q01DX009 (ip), vehicle: saline with Tween-80
[7] = dose: 200.0 mg/kg/injection, schedule: Q01DX009 (ip), vehicle: saline with Tween-80
[8] = dose: 12.5 mg/kg/injection, schedule: Q01DX005 (ip), vehicle: saline with Tween-80
[9] = dose: 25.0 mg/kg/injection, schedule: Q01DX005 (ip), vehicle: saline with Tween-80
[10] = dose: 50.0 mg/kg/injection, schedule: Q01DX005 (ip), vehicle: saline with Tween-80
[11] = dose: 100.0 mg/kg/injection, schedule: Q01DX005 (ip), vehicle: saline with Tween-80
[12] = dose: 12.5 mg/kg/injection, schedule: Q01DX009 (ip), vehicle: Klucel (hydroxypropylcellulose) (HPC)
[13] = dose: 25.0 mg/kg/injection, schedule: Q01DX009 (ip), vehicle: Klucel (hydroxypropylcellulose) (HPC)
[14] = dose: 50.0 mg/kg/injection, schedule: Q01DX005 (ip), vehicle: Klucel (hydroxypropylcellulose) (HPC)
[15] = dose: 100.0 mg/kg/injection, schedule: Q01DX005 (ip), vehicle: Klucel (hydroxypropylcellulose) (HPC)
[16] = dose: 200.0 mg/kg/injection, schedule: Q01DX005 (ip), vehicle: Klucel (hydroxypropylcellulose) (HPC)
[17] = dose: 50.0 mg/kg/injection, schedule: Q01DX009 (ip), vehicle: saline
[18] = dose: 100.0 mg/kg/injection, schedule: Q01DX009 (ip), vehicle: saline
[19] = dose: 200.0 mg/kg/injection, schedule: Q01DX009 (ip), vehicle: saline
[20] = dose: 100.0 mg/kg/injection, schedule: Q01DX009 (ip), vehicle: saline with Tween-80
[21] = dose: 50.0 mg/kg/injection, schedule: Q01DX009 (ip), vehicle: Klucel (hydroxypropylcellulose) (HPC)
[22] = dose: 100.0 mg/kg/injection, schedule: Q01DX009 (ip), vehicle: Klucel (hydroxypropylcellulose) (HPC)
[23] = dose: 200.0 mg/kg/injection, schedule: Q01DX009 (ip), vehicle: Klucel (hydroxypropylcellulose) (HPC)
[24] = dose: 200.0 mg/kg/injection, schedule: Q01DX005 (ip), vehicle: saline with Tween-80

Measured: T/C

CCOc1nc(C)c(C)c(-c2ccc(OC)c(OC)c2OCc2ccccc2)c1C#N
inactive: dose: 0.05 mg/kg/injection, schedule: Q01DX009 (ip), vehicle: other 117 % of control | dose: 0.1 mg/kg/injection, schedule: Q01DX009 (ip), vehicle: other 96 % of control | dose: 0.2 mg/kg/injection, schedule: Q01DX009 (ip), vehicle: other 101 % of control | dose: 0.4 mg/kg/injection, schedule: Q01DX009 (ip), vehicle: other 100 % of control and 107 % of control | dose: 0.8 mg/kg/injection, schedule: Q01DX009 (ip), vehicle: other 110 % of control | dose: 1.6 mg/kg/injection, schedule: Q01DX009 (ip), vehicle: other 117 % of control | dose: 3.2 mg/kg/injection, schedule: Q01DX009 (ip), vehicle: other 115 % of control | dose: 6.4 mg/kg/injection, schedule: Q01DX009 (ip), vehicle: DMSO 103 % of control | dose: 6.4 mg/kg/injection, schedule: Q01DX009 (ip), vehicle: other 110 % of control | dose: 12.8 mg/kg/injection, schedule: Q01DX009 (ip), vehicle: DMSO 94 % of control | dose: 25.6 mg/kg/injection, schedule: Q01DX009 (ip), vehicle: DMSO 94 % of control | dose: 51.2 mg/kg/injection, schedule: Q01DX009 (ip), vehicle: DMSO 97 % of control | dose: 100.0 mg/kg/injection, schedule: Q01DX009 (ip), vehicle: other 104 % of control | dose: 102.0 mg/kg/injection, schedule: Q01DX009 (ip), vehicle: DMSO 94 % of control | dose: 200.0 mg/kg/injection, schedule: Q01DX009 (ip), vehicle: other 115 % of control | dose: 400.0 mg/kg/injection, schedule: Q01DX009 (ip), vehicle: other 100 % of control

CSc1ccc(NC(=S)SCc2ccc3c(c2)OCO3)cc1Cl
inactive: [1] 105 % of control | [2] 101 % of control | [3] 98 % of control

CCCCCC(CN(C)C)C(=O)/C=C/c1ccc(Cl)cc1 (stereo not drawn)
inactive: [4] 95 % of control | [5] 96 % of control | [6] 113 % of control

CC(C)C1=C(O)C2=C(C(=O)C1=O)C1(C)CCCC(C)(C)C1CC2O (stereo not drawn)
inactive: [5] 100 % of control | [6] 104 % of control | [7] 108 % of control

CCCCCC(CN(C)C)C(=O)/C=C/c1ccc(C)cc1 (stereo not drawn)
inactive: [8] 98 % of control | [9] 100 % of control | [10] 106 % of control and 97 % of control | [11] 98 % of control

Fc1cccc(NC(=S)SCc2ccc(Cl)c(Cl)c2)c1
inactive: [1] 99 % of control | [2] 93 % of control | [3] 109 % of control

Nc1ccc(Nc2ccncc2)cc1
inactive: dose: 6.25 mg/kg/injection, schedule: Q01DX009 (ip), vehicle: Klucel (hydroxypropylcellulose) (HPC) 100 % of control | [12] 95 % of control | [13] 100 % of control

OCC(O)CNc1ncnc2cc(Cl)ccc12 (stereo not drawn)
inactive: dose: 25.0 mg/kg/injection, schedule: Q01DX005 (ip), vehicle: Klucel (hydroxypropylcellulose) (HPC) 100 % of control | [14] 96 % of control | [15] 102 % of control | [16] 105 % of control

O=C1OC2C=CC=CN2C(=O)C1Cc1ccccc1 (stereo not drawn)
inactive: dose: 60.0 mg/kg/injection, schedule: Q01DX005 (ip), vehicle: Klucel (hydroxypropylcellulose) (HPC) 105 % of control | dose: 120.0 mg/kg/injection, schedule: Q01DX005 (ip), vehicle: Klucel (hydroxypropylcellulose) (HPC) 102 % of control | dose: 240.0 mg/kg/injection, schedule: Q01DX005 (ip), vehicle: Klucel (hydroxypropylcellulose) (HPC) 100 % of control

O=C(Nc1ccc(Cl)cc1C(F)(F)F)Oc1ccc(-c2ccccc2)cc1Br
inactive: [17] 95 % of control | [18] 88 % of control | [19] 97 % of control

CS(=O)(=O)OCC#CCOS(C)(=O)=O
inactive: dose: 1.56 mg/kg/injection, schedule: Q01DX009 (ip), vehicle: Klucel (hydroxypropylcellulose) (HPC) 109 % of control | dose: 3.12 mg/kg/injection, schedule: Q01DX009 (ip), vehicle: Klucel (hydroxypropylcellulose) (HPC) 120 % of control

O=c1[nH]cc(C(O)Cc2ccccc2)c(=O)[nH]1 (stereo not drawn)
inactive: [20] 104 % of control | [7] 100 % of control | dose: 400.0 mg/kg/injection, schedule: Q01DX009 (ip), vehicle: saline with Tween-80 100 % of control

CSc1ccc(N2C(=O)CCSC2=S)cc1Cl
inactive: [1] 108 % of control | [2] 110 % of control | [3] 114 % of control

S=C1OCCO1
inactive: [21] 106 % of control | [22] 102 % of control | [23] 100 % of control | dose: 400.0 mg/kg/injection, schedule: Q01DX009 (ip), vehicle: Klucel (hydroxypropylcellulose) (HPC) 105 % of control

CCCCCCCCn1c(C)nc2c(cnn2C)c1=O
inactive: [14] 100 % of control | [15] 96 % of control | [16] 100 % of control

CC12CCC(CC1=O)C2(C)CC#N (stereo not drawn)
inactive: dose: 7.5 mg/kg/injection, schedule: Q01DX005 (ip), vehicle: saline 101 % of control | dose: 15.0 mg/kg/injection, schedule: Q01DX005 (ip), vehicle: saline 100 % of control

CCOC(=O)NC(=O)NC(=O)OCC
inactive: dose: 100.0 mg/kg/injection, schedule: Q04DX003 (ip), vehicle: saline sonified 100 % of control | dose: 200.0 mg/kg/injection, schedule: Q04DX003 (ip), vehicle: saline sonified 100 % of control | dose: 400.0 mg/kg/injection, schedule: Q04DX003 (ip), vehicle: saline sonified 100 % of control

CNC(C)Cc1ccccc1 (stereo not drawn) (tested in a mixture with another compound)
inactive: dose: 6.25 mg/kg/injection, schedule: Q01DX005 (ip), vehicle: saline with Tween-80 112 % of control | [8] 103 % of control | [9] 104 % of control | [10] 116 % of control

CC(=O)Oc1c(Cl)c(Cl)c(C#N)c(Cl)c1C#N
inactive: [5] 100 % of control and 105 % of control | [6] 105 % of control

CSc1cccc(NC(=O)Oc2cccnc2)c1
inactive: [21] 103 % of control | [22] 100 % of control | [23] 100 % of control

O=C1C(Cl)=C(N2CCOCC2)C(=O)C(Cl)=C1N1CCOCC1
inactive: dose: 50.0 mg/kg/injection, schedule: Q01DX005 (ip), vehicle: suspension in saline 99 % of control | dose: 100.0 mg/kg/injection, schedule: Q01DX005 (ip), vehicle: suspension in saline 104 % of control

COc1cc(CC(C)N)ccc1O (stereo not drawn)
inactive: [4] 100 % of control | [5] 99 % of control | [6] 104 % of control | [20] 95 % of control

Oc1ccc(C2(c3ccc(O)cc3)CC3CC2C2CCCC32)cc1 (stereo not drawn)
inactive: [21] 98 % of control | [22] 97 % of control | [23] 97 % of control

CC(C)(C)N1CC(COc2ccc(Cl)cc2)OC1=O (stereo not drawn)
inactive: [21] 99 % of control | [22] 104 % of control | [23] 102 % of control

CC(C)=NO
inactive: [17] 117 % of control | [18] 100 % of control | [19] 101 % of control

COc1ccccc1NC(=O)Cc1nc(=O)[nH]c(=O)[nH]1
inactive: [12] 100 % of control | [13] 90 % of control | [21] 101 % of control | [22] 102 % of control | [23] 96 % of control

COc1ccc(OC(N)=O)c2ccccc12
inactive: dose: 25.0 mg/kg/injection, schedule: Q01DX001 (ip), vehicle: Klucel (hydroxypropylcellulose) (HPC) 100 % of control | dose: 50.0 mg/kg/injection, schedule: Q01DX001 (ip), vehicle: Klucel (hydroxypropylcellulose) (HPC) 100 % of control | dose: 100.0 mg/kg/injection, schedule: Q01DX001 (ip), vehicle: Klucel (hydroxypropylcellulose) (HPC) 108 % of control

Cc1c2c(c(O)c3sccc13)C(C)(C)OC2=O
inactive: [10] 101 % of control | [11] 99 % of control | [24] 97 % of control

Cc1c(N=Nc2ccccc2Cl)c(-c2ccccc2)nn1C(=S)S
inactive: [10] 111 % of control | [11] 108 % of control | [24] 111 % of control
